Assay [1] has as its system ET1/PETR3 positive feedback expression unit. Briefly: Autoregulated pWW46 (PETR3-CFP-IRES-ET1-pA) CFP expression by fluorescence microscopy. The class given is cell-based. To be noted: pWW46 in CHO-K1, HeLa, COS-7 or HEK 293-T cells; erythromycin 2 μg/ml. From the text:
These positive feedback regulation vectors that were constructed contain both the cyan fluorescent protein CFP and ET1 in a dicistronic, PETR3-driven configuration.

Assay [2] deals with PIT / pristinamycin-responsive promoter PPIR. Briefly: SEAP assay in CHO-Triplet42 transfected with PPIR-SEAP (pMF172). The format is cell-based. To be noted: CHO-Triplet42 + pMF172 (PPIR); antibiotic 2 μg/ml; 48 h. The method, then: (§1) Chinese hamster ovary cells (CHO-K1, ATCC: CCL 61), and HeLa cells (ATCC: CRL-7923) as well as stable cell lines derived thereof were cultured as described before (Fussenegger et al., 1998, Nat. Biotechnol. 16,468-472) in the presence of appropriate antibiotics: G418 400 μg/ml; zeocin 100 μg/ml. Optimized CaPO4 protocols were used for high efficiency transient transfection of all cell lines (Fussenegger et al., 1998. Nat. Biotechnol. 16: 468-472). Transiently transfected cells were routinely analyzed after 48 h for CFP or SEAP expression using fluorescence microscopy and p-nitrophenolphosphate-based light absorbance timecourse, respectively, as described before (Fussenegger et al., 1998, Nat. Biotechnol. 16, 468-472; Berger et al., 1988, Gene 66, 1-10 b). For construction of stable CHO-ET1 and CHO-Triplet42 cell lines, CHO-Ki and CHO-TWIN1108 (Disclosed in PCT application no. 00/65080) were cotransfected with pWW35 and pZeoSV2 (invitrogen). CHO-ET11-SEAP was constructed by cotransfection of pWW38 and pSV2neo (Clontech) into CHO-ET11. The mixed populations were cloned using FACS-mediated single-cell-sorting (FACStar^Plus; Beckton Dickinson). For assessment of dose-response characteristics of PETR3-regulated gene expression, CHO-ET11-SEAP were cultured at cell densities of 50,000/ml for 48 h at various EM concentrations.
(§2) Other antibiotics were eluted from antibiotic test discs (Mast Diagnostica GmbH, Reinfeld, Germany, or bioMérieux, Geneva Switzerland) in cell culture medium at 37° C. for 12 h to reach a final concentration of 30 μg/ml. All macrolide antibiotics were used at a 2 μg/ml concentration unless indicated otherwise.
(§3) The regulation performance of the EM-based regulation system was compared directly with the widely used TET- and PIP responsive expression concepts. To this end, we have constructed a stable CHO-K1-derived cell line expressing ET1, PIT and tTA (CHO-Triplet42). […] CHO-Triplet42 was transfected with either isogenic (i) PETR3-(pWW38), (ii) a PPIR-(pristinamycin-responsive promoter, pMF172, Fussenegger et al., 2000. supra.), or (iii) a PhCMV*-1-(tetracycline-responsive promoter, pMF111, Fussenegger et al., 2000. supra) driven SEAP expression vector to assess the individual regulation performance of the three antibiotic-responsive gene regulation systems in CHO cells (Table 5).
(§4) To analyze the relative regulatory characteristics, we evaluated induction factors (IF; ratio of maximal expression level to antibiotic-repressed expression level).
(§5) These repressive effects are still in a range which is tolerable for use in potential medical applications.

Assay [3] has as its system erythromycin-dependent transactivators ET (MphR(A) fusions) / PETR promoters. Briefly: SEAP reporter assay, CHO-K1 transiently cotransfected with ET transactivator and PETR-SEAP plasmids. The format is cell-based, Chinese hamster. The method, then: as §1, §2
In order to analyze the potential of the MphR(A)/ETR system for the design of a novel mammalian gene regulation system, we adapted these regulatory elements for use in a eukaryotic context by construction of a set of two chimeric determinants: the EM-inhibited transactivators (ET, MphR(A) fused to different eukaryotic transactivation domains: ET1: MphR(A)-VP16; ET2: MphR(A)-p65; ET3: MphR(A)-E2F4) and the EM-responsive promoter (PETR3) (ETR fused to the minimal cytomegalovirus PhCMVmin; Gossen et al., (1992). Proc. Natl. Acad. Sci. USA 89, 5547-5551). […] CFP-expression could only be detected when pWW44 was cotransfected with an ET1-encoding pWW35, showing that the chimeric ET1 protein functions as a transactivator for PETR3 in mammalian cells.
To analyze the regulatory performance of promoters PETR1 and PETR4, an ET1-encoding vector (pWW35) was cotransfected with pWW36 and pWW39 into CHO-K1 cells. […] The results are shown in Table 6 together with the values of an ET1/PETR3 transfection (Table 5) for better comparison.

Assay [4] concerns PETR1-YFP and PhCMV*-1-CFP expression units. As to the kind of experiment: Dual-regulated vector pDuoRex9 (pWW94) in CHO-Triplet42 by fluorescence microscopy. The class given is cell-based. As to conditions: transient transfection into CHO-Triplet42.
Assay [5] concerns PSV40 or PhCMV-driven SEAP expression constructs. As to the kind of experiment: SEAP expression from constitutive PSV40 or PhCMV-driven constructs with erythromycin. The format is cell-based. As to conditions: data not shown.
In assay [6] the test system is ET1 / erythromycin-responsive promoter PETR3. As to the kind of experiment: SEAP assay in CHO-Triplet42 transfected with PETR3-SEAP (pWW38). To be noted: CHO-Triplet42 + PWW38 (PETR3); antibiotic 2 μg/ml; 48 h. The class given is cell-based. The method, then:
as §1, §2, §3, §4, §5

In the case of `CC[C@H]1OC(=O)[C@H](C)[C@@H](O[C@H]2C[C@@](C)(OC)[C@@H](O)[C@H](C)O2)[C@H](C)[C@@H](O[C@@H]2O[C@H](C)C[C@H](N(C)C)[C@H]2O)[C@](C)(O)C[C@@H](C)C(=O)[C@H](C)[C@@H](O)[C@]1(C)O` [Erythromycin], the “CFP-expression (fluorescence microscopy)” value in assay [1] is reported as “completely repressed”. In addition, the “SEAP activity [U/L]” value came out at 10.1 ± 1.5 U/L in assay [2] and 3.8 ± 0.4 U/L in assay [6]. For the same compound, the “SEAP activity [U/L] + Erythromycin [10 μg/ml]” value stood at 12.1 ± 1.5 U/L in assay [3] (CHO + pBP37 + pWW38 (ET5 + PETR3), 48 hr); 5.8 ± 0.5 U/L in assay [3] (CHO + pBP38 + pWW38 (ET6 + PETR3), 48 hr); 2.3 ± 0.2 U/L in assay [3] (CHO + pBP39 + pWW38 (ET7 + PETR3), 48 hr); 5.3 ± 0.6 U/L in assay [3] (CHO + pWW35 + pWW36 (ET1 + PETR1-SEAP), 48 hrs); 5.2 ± 0.5 U/L in assay [3] (CHO + pWW35 + pWW38 (ET1 + PETR3), 48 hr post transfection); 29.3 ± 0.6 U/L in assay [3] (CHO + pWW35 + pWW39 (ET1 + PETR4-SEAP), 48 hrs). The “SEAP activity [U/L] + Erythromycin [10 μg/ml]” value was determined as 2.5 ± 0.6 U/L in assay [3] (CHO + pWW42 + pWW38 (ET2 + PETR3), 48 hr) and 1.0 ± 0.4 U/L in assay [3] (CHO + pWW64 + pWW38 (ET3 + PETR3), 48 hr). The “YFP and CFP expression from pDuoRex9 (fluorescence microscopy)” value in assay [4] was “independent on/off-regulation”. Moreover, the “Influence on expression levels of PSV40 or PhCMV-driven SEAP expression constructs” value in assay [5] was “no influence”.

For the origin of these results see patent US7273723B2, “Antibiotic-based gene regulation system” (priority 2001, dated 2007).
